Assay results: US7968526B2, “Antisense oligonucleotides directed to ribonucleotide reductase R2 and uses thereof in the treatment of cancer” (Lorus Therapeutics Inc., priority 2003, dated 2011)
“Also recorded” adds a separate entry of the source.

What was measured:
[1] = test system: MDA-MB435-To.1 human Taxol-resistant breast adenocarcinoma cells; assay: MDA-MB435-To.1 Taxol-resistant breast adenocarcinoma, fat pad, CB-17 SCID mice, combination with Cisplatin (2.6); format: in vivo, human cells in mice; settings: SEQ ID NO:1 10 mg/kg i.v. every other day
Description: BxPC-3 is a gemcitabine resistant call line. […] Gemcitabine was administered intravenously every three days at a dose of 100 mg/kg. Antitumour activities were estimated by the inhibition of tumour volume, which was measured with caliper. Each point represents mean tumour volume calculated from 10 animals per experimental group. […] Hela S3 is a hydroxyurea resistant cell line. […] Hydroxyurea was administered intraperitoneally every day at a dose of 250 mg/kg for 10 days. Cisplatin was administered intravenously once a week for three weeks at a dose of 4 mg/kg. Antitumour activities were estimated by the inhibition of tumour volume, which was measured with caliper. Each point represents mean tumour volume calculated from 10 animals per experimental group. […] Cisplatin was administered intravenously once a week for three weeks at a dose of 4 mg/kg. Taxol was administered intravenously once a week for three weeks at a dose of 10 mg/kg. Antitumour activities were estimated by the inhibition of tumour volume, which was measured with caliper. Each point represents mean tumour volume calculated from 10 animals per experimental group. […] Taxol was administered i.p. once a week at a dose of 10 mg/kg. Antitumour activities were estimated by the inhibition of tumour volume (FIG. 12A), which was measured with calipers. Each point represents mean tumour volume calculated from 10 animals per experimental group. […] Antitumour activities were estimated by the inhibition of tumour volume, which was measured with caliper. Each point represents mean tumour volume calculated from 9-10 animals per experimental group. […] Antitumour activities were estimated by the inhibition of tumour volume, which was measured with caliper. Each point represents mean tumour volume calculated from 10 animals per experimental group. […] Anti-tumour activity was estimated by the inhibition of tumour volume, which was measured with caliper. Each point represents mean tumour volume calculated from 10 animals per experimental group. […] Antitumour activities were estimated by the inhibition of tumour volume, which was measured with caliper. […]

[2] = test system: Hep G2 human liver cancer cells; assay: HepG2 liver tumour growth in CD-1 nude mice (3.7); format: in vivo, human cells in mice
Description: Treatments lasted for 14 days thereafter. Antitumour activities were estimated by the inhibition of tumour volume, which was measured with a caliper on four different occasions over the treatment period. Each point represents mean tumour volume calculated from 5 animals per experimental group. […] Control animals (control) received saline alone for the same period. At the end of the treatments, the animals were sacrificed, tumours were excised and their weights were measured. Each bar represents mean tumour weight calculated from 6 animals per experimental group. […] Treatments lasted for 24 days thereafter. Antitumour activities were estimated by the inhibition of tumour volume, which was measured with a caliper at two-day intervals over the treatment period. Each point represents mean tumour volume calculated from 4 animals per experimental group. […] Treatments lasted for 24 days thereafter. Antitumour activities were estimated by the inhibition of tumour volume, which was measured with a caliper at two-day intervals over the treatment period. Each point represents mean tumour volume calculated from 4 animals per experimental group. […] Treatments lasted for 22 days thereafter. […] Each point represents mean tumour volume calculated from 5 animals per experimental group. […] Treatments lasted for 14 days thereafter. Antitumour activities were estimated by the inhibition of tumour volume, which was measured with a caliper on four different occasions over 16-day period. Each point represents mean tumour volume calculated from 5 animals per experimental group. […] Two different batches of SEQ ID NO:1, synthesized at different times (designated as batch 1 and batch 2), were tested to detect possible batch-specific effects. […] Treatments lasted for 34 days thereafter. Antitumour activities were estimated by the inhibition of tumour volume, which was measured with a caliper at two-day intervals over the treatment period. Each point represents mean tumour volume calculated from 5 animals per experimental group. […] Treatments lasted for 30 days thereafter. Antitumour activities were estimated by the inhibition of tumour volume, which was measured with a caliper at various time intervals over the span of 30 days. Each point represents mean tumour volume calculated from 6 animals per experimental group. […] All treatments were stopped at day 36. Antitumour activities were estimated by the inhibition of tumour volume, which was measured with a caliper. Each point represents mean tumour volume calculated from 5 animals per experimental group. […] All treatments were stopped at day 52. […] Antitumour activities were estimated by the inhibition of tumour volume, which was measured with a caliper.

Substance: 5′-GGCTAAATCGCTCCACCAAG-3′ (all phosphorothioate, sugars by position and methylation of C not given here) [SEQ ID NO: 1, fully phosphorothioated antisense oligonucleotide that hybridizes to the coding region of R2 mRNA]
- Tumour weight as % of saline control ([1]; MDA-MB435-To.1 (breast), Taxol resistant, CB-17/SCID, Cisplatin 4 mg/kg i.v. weekly x4): 37%
- Antitumour effect (FIG. 14) ([1]; MDA-MB435-To.1 Taxol-resistant, CB-17 SCID mice, Cisplatin 4 mg/kg i.v. weekly): significant reduction of tumour weight compared to saline control; also recorded: superior to the inhibitory effects observed with Cisplatin
- Inhibitory effect on tumour growth (tumour volume, FIG. 20) ([2]; Hep G2, CD-1 nude mice, 2.5 mg/kg i.v. every day, 30 days): significant inhibitory effects on the growth of human hepatoma cells
- Inhibition of tumour weight ([2]; Human Liver Carcinoma): ~65%
- Inhibition of tumour size ([2]; Human Liver Carcinoma in CD-1 nude mice, Day 30 after tumour implantation): Inhibition of tumour size by 45% in CD-1 nude
